According to patent publication US20110077251A1, “NOVEL 17 BETA LUPANE DERIVATIVES” (priority 2009, published 2011):
pIC50: −log10 of the molar value.

Key:
HIVIIIB [1] = assay: HIV-1 replication in MT2 cell line without human serum (RT activity in supernatant); assay type: cell-based; conditions: MT2 cells, day 5 after infection, average if tested more than once, read-out: MT2 (HIVIIIB) IC50 range
Description: (§1) HIV-1 Replication in MT2 cell line with and without 30% human serum: The cells are infected at a Multiciplicity of Infection (MOI) of 0.5 for 3 h and then washed twice with complete media to remove residual virus. Cells are then resuspended at 0.5×10^6/ml in complete medium (RPMI, 10% FBS, 1% sodium pyruvate), and seeded into 96-well plates (6.25×10^4/well). The cells are cultured in the presence or absence of various concentrations of test compounds in serial dilutions for 3 days at 37° C. The test compounds are serially diluted in complete medium supplemented or not with 30% human serum. After 3 days, 100 μL of cultured medium with cells are replaced with 120 μL of freshly diluted test compounds in complete medium containing or not 30% Human serum. The level of HIV-1 replication is determined at days 5 after infection by the presence of viral RT activity in harvested supernatant fluid. The IC50 values for the virus replication are determined by using GRAPHPAD PRISM software.
(§2) The IC50 of the compounds tested in accordance with the HIV replication activity assay MT2 (HIVIIIB) with or without human serum are represented in Table 6.

HIVIIIB [2] = assay: HIV-1 replication in MT2 cell line with 30% human serum (RT activity in supernatant); assay type: cell-based; conditions: MT2 cells, day 5 after infection, average if tested more than once, read-out: MT2 (HIVIIIB) with human serum IC50 range
Description: as §1, §2

[3] = Human immunodeficiency virus 1, 120 h

SMILES	pIC50 (HIVIIIB [1]; [3])	pIC50 (HIVIIIB [2]; [3])	pIC50 (HIVIIIB [1])	pIC50 (HIVIIIB [2])
C=C(C)[C@@H]1CC[C@]2(NC(=O)N3CCOCC3)CC[C@]3(C)[C@H](CC[C@@H]4[C@@]5(C)CC[C@H](OC(=O)CC(C)(C)C(=O)O)C(C)(C)[C@@H]5CC[C@]43C)[C@@H]12 [Cpd 11-8, 3β-O-(3′,3′-Dimethylsuccinyl)-17β-[(morpholine-4-carbonyl)-amino]-28-norlup-20(29)-ene]	> 6.70	> 6.70	–	–
C=C(C)[C@@H]1CC[C@]2(NS(C)(=O)=O)CC[C@]3(C)[C@H](CC[C@@H]4[C@@]5(C)CC[C@H](OC(=O)CC(C)(C)C(=O)O)C(C)(C)[C@@H]5CC[C@]43C)[C@@H]12 [Cpd 12-1, 3β-O-(3′,3′-Dimethylsuccinyl)-17β-methylsulfonylamino-28-norlup-20(29)-ene]	> 6.70	> 6.70	–	–
C=C(C)[C@@H]1CC[C@]2(NC(=O)CCN3CCCC3)CC[C@]3(C)[C@H](CC[C@@H]4[C@@]5(C)CC[C@H](OC(=O)CC(C)(C)C(=O)O)C(C)(C)[C@@H]5CC[C@]43C)[C@@H]12 [Cpd 13-11, 3β-O-(3′,3′-Dimethylsuccinyl)-17β-(3-pyrrolidin-1-yl-propionylamino)-28-norlup-20(29)-ene]	> 6.70	> 6.70	–	–
C=C(C)[C@@H]1CC[C@]2(NC(=O)c3ccncc3)CC[C@]3(C)[C@H](CC[C@@H]4[C@@]5(C)CC[C@H](OC(=O)CC(C)(C)C(=O)O)C(C)(C)[C@@H]5CC[C@]43C)[C@@H]12 [Cpd 13-8, 3β-O-(3′,3′-Dimethylsuccinyl)-17β-(pyridin-4-ylcarbonyl)-amino-28-norlup-20(29)-ene]	> 6.70	6.00 to 6.70	–	–
C=C(C)[C@@H]1CC[C@]2(NC(=O)C(C)C)CC[C@]3(C)[C@H](CC[C@@H]4[C@@]5(C)CC[C@H](OC(=O)CC(C)(C)C(=O)O)C(C)(C)[C@@H]5CC[C@]43C)[C@@H]12 [Cpd 13-10, 3β-O-(3′,3′-Dimethylsuccinyl)-17β-isobutyrylamino-28-norlup-20(29)-ene]	> 6.70	> 6.70	–	–
C=C(C)[C@@H]1CC[C@]2(NC(N)=O)CC[C@]3(C)[C@H](CC[C@@H]4[C@@]5(C)CC[C@H](OC(=O)CC(C)(C)C(=O)O)C(C)(C)[C@@H]5CC[C@]43C)[C@@H]12 [Cpd 11-10, 3β-O-(3′,3′-Dimethylsuccinyl)-17β-ureido-28-norlup-20(29)-ene]	> 6.70	> 6.70	–	–
CC(=O)NC12CCC(C(C)C)C1C1CCC3C4(C)CCC(OC(=O)CC(C)(C)C(=O)O)C(C)(C)C4CCC3(C)C1(C)CC2 (stereo not drawn) [Cpd 22-1, 3β-O-(3′,3′-Dimethylsuccinyl)-17β-acetylamino-28-norlupane]	–	–	> 6.70	> 6.70
C=C(C)[C@@H]1CC[C@]2(NC(=O)NC(=O)OC)CC[C@]3(C)[C@H](CC[C@@H]4[C@@]5(C)CC[C@H](OC(=O)CC(C)(C)C(=O)O)C(C)(C)[C@@H]5CC[C@]43C)[C@@H]12 [Cpd 11-1, 3β-O-(3′,3′-Dimethylsuccinyl)-17β-[N′-(methoxycarbonyl)ureido]-28-norlup-20(29)-ene]	> 6.70	> 6.70	–	–
C=C(C)[C@@H]1CC[C@]2(NC(=O)NCc3ccccc3)CC[C@]3(C)[C@H](CC[C@@H]4[C@@]5(C)CC[C@H](OC(=O)CC(C)(C)C(=O)O)C(C)(C)[C@@H]5CC[C@]43C)[C@@H]12 [Cpd 11-6, 3β-O-(3′,3′-Dimethylsuccinyl)-17β-[N′-(benzyl)ureido]-28-norlup-20(29)-ene]	> 6.70	> 6.70	–	–
C=C(C)[C@@H]1CC[C@]2(NC(C)=O)CC[C@]3(C)[C@H](CC[C@@H]4[C@@]5(C)CC[C@H](OC(=O)CC(C)(C)C(=O)O)C(C)(C)[C@@H]5CC[C@]43C)[C@@H]12 [Cpd 13-1, 17β-Acetylamino-3β-O-(3′,3′-dimethylsuccinyl)-28-norlup-20(29)-ene]	> 6.70	> 6.70	–	–
C=C(C)[C@@H]1CC[C@]2(NC(=O)NC(C)(C)C)CC[C@]3(C)[C@H](CC[C@@H]4[C@@]5(C)CC[C@H](OC(=O)CC(C)(C)C(=O)O)C(C)(C)[C@@H]5CC[C@]43C)[C@@H]12 [Cpd 11-2, 3β-O-(3′,3′-Dimethylsuccinyl)-17β-[N′-(tert-butyl)ureido]-28-norlup-20(29)-ene]	> 6.70	> 6.70	–	–
C=C(C)[C@@H]1CC[C@]2(NC(=O)OC)CC[C@]3(C)[C@H](CC[C@@H]4[C@@]5(C)CC[C@H](OC(=O)CC(C)(C)C(=O)O)C(C)(C)[C@@H]5CC[C@]43C)[C@@H]12 [Cpd 14-1, 3β-O-(3′,3′-Dimethylsuccinyl)-17β-methoxycarbonylamino-28-norlup-20(29)-ene]	> 6.70	> 6.70	–	–
